Data published in patent US9187490B2, “Dimeric IAP inhibitors” (TetraLogic Pharmaceuticals Corporation, priority 2005, dated 2015).

Target: T1, XIAP-BIR3 (Homo sapiens, UniProt P98170)
T1 construct: 40 nM of XIAP-BIR3 for 15 min at RT
Test: XIAP BIR-3 fluorescence polarization binding assay
Settings: 5 nM AbuRPF-K(5-Fam)-NH2, 40 nM XIAP-BIR3, 15 min RT, pH 7.5; read-out: KD Range
Procedure: Following incubation, the polarization values (mP) were measured on a Victor^2V using a 485 nm excitation filter and a 520 nm emission filter. IC50 values were determined from the plot using nonlinear least-squares analysis using GraphPad Prism.

T1 sequence (P98170 241-356 limits assumed): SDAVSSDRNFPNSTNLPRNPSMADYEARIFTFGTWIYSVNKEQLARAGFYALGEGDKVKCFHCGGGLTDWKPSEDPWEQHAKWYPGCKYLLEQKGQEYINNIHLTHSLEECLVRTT

Row | SMILES | Kd
1 | C[C@H](N)C(=O)N[C@H](C(=O)N1CCC[C@H]1Cc1c(-c2ccc(-c3[nH]c4cc(F)ccc4c3C[C@@H]3CCCN3C(=O)[C@@H](NC(=O)[C@H](C)N)C3CCCCC3)cc2)[nH]c2cc(F)ccc12)C1CCCCC1 [Entry 39] | < 100 nM
2 | CN[C@@H](C)C(=O)N[C@H](C(=O)N1C[C@@H](O)C[C@H]1Cc1c(-c2ccc(-c3[nH]c4ccc(F)cc4c3C[C@@H]3C[C@H](O)CN3C(=O)[C@@H](NC(=O)[C@H](C)NC)C(C)C)cc2)[nH]c2ccc(F)cc12)C(C)C [Entry 40] | 100 to 1000 nM
3 | CN[C@@H](C)C(=O)N[C@H](C(=O)N1C[C@@H](O)C[C@H]1Cc1c(-c2ccc(-c3[nH]c4ccc(F)cc4c3C[C@@H]3C[C@H](O)CN3C(=O)[C@@H](NC(=O)[C@H](C)NC)C(C)(C)C)cc2)[nH]c2ccc(F)cc12)C(C)(C)C [Entry 41] | < 100 nM
4 | CN[C@@H](C)C(=O)N[C@H](C(=O)N1CCC[C@H]1Cc1c(-c2ccc(-c3c(C[C@@H]4CCCN4C(=O)[C@@H](NC(=O)[C@H](C)N)[C@@H](C)O)c4ccc(F)cc4n3CCO)cc2)n(CCO)c2cc(F)ccc12)[C@@H](C)O [Entry 43] | < 100 nM
5 | CN[C@@H](C)C(=O)N[C@H](C(=O)N1CCC[C@H]1Cc1c(-c2ccc(-c3c(C[C@@H]4CCCN4C(=O)[C@@H](NC(=O)[C@H](C)NC)[C@@H](C)O)c4ccc(F)cc4n3CCO)cc2)n(CCO)c2cc(F)ccc12)[C@@H](C)O [Entry 44] | < 100 nM
6 | CN[C@@H](C)C(=O)N[C@H](C(=O)N1CCC[C@H]1Cc1c(-c2ccc(-c3c(C[C@@H]4CCCN4C(=O)[C@@H](NC(=O)[C@H](C)N)[C@@H](C)O)c4ccc(F)cc4n3CCOC(C)=O)cc2)n(CCOC(C)=O)c2cc(F)ccc12)[C@@H](C)O [Entry 45] | < 100 nM
7 | CN[C@@H](C)C(=O)N[C@H](C(=O)N1CCC[C@H]1Cc1c(-c2ccc(-c3c(C[C@@H]4CCCN4C(=O)[C@@H](NC(=O)[C@H](C)NC)C(C)C)c4ccc(F)cc4n3CCO)cc2)n(CCO)c2cc(F)ccc12)C(C)C [Entry 46] | < 100 nM
8 | CN[C@@H](C)C(=O)N[C@H](C(=O)N1CCC[C@H]1Cc1c(-c2ccc(-c3c(C[C@@H]4CCCN4C(=O)[C@@H](NC(=O)[C@H](C)NC)C(C)C)c4ccc(F)cc4n3CCOC(C)=O)cc2)n(CCOC(C)=O)c2cc(F)ccc12)C(C)C [Entry 47] | < 100 nM
9 | CN[C@@H](C)C(=O)N[C@H](C(=O)N1CCC[C@H]1Cc1c(-c2ccc(-c3c(C[C@@H]4CCCN4C(=O)[C@@H](NC(=O)[C@H](C)NC)C(C)(C)C)c4ccc(F)cc4n3CCOC(C)=O)cc2)n(CCOC(C)=O)c2cc(F)ccc12)C(C)(C)C [Entry 49] | < 100 nM
10 | CN[C@@H](C)C(=O)N[C@H](C(=O)N1CCC[C@H]1Cc1c(-c2ccc(-c3c(C[C@@H]4CCCN4C(=O)[C@@H](NC(=O)[C@H](C)NC)[C@@H](C)O)c4ccc(F)cc4n3CCOC)cc2)n(CCOC)c2cc(F)ccc12)[C@@H](C)O [Entry 50] | < 100 nM
11 | CN[C@@H](C)C(=O)N[C@H](C(=O)N1CCC[C@H]1Cc1c(-c2ccc(-c3c(C[C@@H]4CCCN4C(=O)[C@@H](NC(=O)[C@H](C)NC)C(C)(C)C)c4ccc(F)cc4n3CCOC)cc2)n(CCOC)c2cc(F)ccc12)C(C)(C)C [Entry 51] | < 100 nM
12 | CN[C@@H](C)C(=O)N[C@H](C(=O)N1CCC[C@H]1Cc1c(-c2ccc(-c3c(C[C@@H]4CCCN4C(=O)[C@@H](NC(=O)[C@H](C)NC)C(C)C)c4ccc(F)cc4n3CCOC)cc2)n(CCOC)c2cc(F)ccc12)C(C)C [Entry 52] | < 100 nM
13 | COCCn1c(-c2ccc(-c3c(C[C@@H]4CCCN4C(=O)[C@@H](NC(=O)[C@H](C)N)C(C)C)c4ccc(F)cc4n3CCOC)cc2)c(C[C@@H]2CCCN2C(=O)[C@@H](NC(=O)[C@H](C)N)C(C)C)c2ccc(F)cc21 [Entry 53] | < 100 nM
14 | CN[C@@H](C)C(=O)N[C@H](C(=O)N1CCC[C@H]1Cc1c(-c2ccc(-c3c(C[C@@H]4CCCN4C(=O)[C@@H](NC(=O)[C@H](C)NC)C(C)(C)C)c4cc(F)ccc4n3CCO)cc2)n(CCO)c2ccc(F)cc12)C(C)(C)C [Entry 54] | < 100 nM
15 | CN[C@@H](C)C(=O)N[C@H](C(=O)N1CCC[C@H]1Cc1c(-c2ccc(-c3c(C[C@@H]4CCCN4C(=O)[C@@H](NC(=O)[C@H](C)NC)C(C)C)c4cc(F)ccc4n3CCO)cc2)n(CCO)c2ccc(F)cc12)C(C)C [Entry 55] | < 100 nM
16 | CN[C@@H](C)C(=O)N[C@H](C(=O)N1CCC[C@H]1Cc1c(-c2ccc(-c3c(C[C@@H]4CCCN4C(=O)[C@@H](NC(=O)[C@H](C)NC)[C@@H](C)O)c4cc(F)ccc4n3CCO)cc2)n(CCO)c2ccc(F)cc12)[C@@H](C)O [Entry 56] | < 100 nM
17 | CN[C@@H](C)C(=O)N[C@H](C(=O)N1CCC[C@H]1Cc1c(-c2ccc(-c3c(C[C@@H]4CCCN4C(=O)[C@@H](NC(=O)[C@H](C)NC)C(C)C)c4ccc(F)cc4n3C)cc2)n(C)c2cc(F)ccc12)C(C)C [Entry 57] | < 100 nM
18 | CN[C@@H](C)C(=O)N[C@H](C(=O)N1CCC[C@H]1Cc1c(-c2ccc(-c3c(C[C@@H]4CCCN4C(=O)[C@@H](NC(=O)[C@H](C)NC)[C@@H](C)O)c4ccc(F)cc4n3C)cc2)n(C)c2cc(F)ccc12)[C@@H](C)O [Entry 58] | < 100 nM
19 | CN[C@@H](C)C(=O)N[C@H](C(=O)N1CCC[C@H]1Cc1c(-c2ccc(-c3c(C[C@@H]4CCCN4C(=O)[C@@H](NC(=O)[C@H](C)NC)C(C)(C)C)c4ccc(F)cc4n3C)cc2)n(C)c2cc(F)ccc12)C(C)(C)C [Entry 59] | < 100 nM
20 | CN[C@@H](C)C(=O)N[C@H](C(=O)N1CCC[C@H]1Cc1c(-c2ccc(-c3c(C[C@@H]4CCCN4C(=O)[C@@H](NC(=O)[C@H](C)NC)C(C)C)c4ccc(F)cc4n3CCOC(C)=O)cc2)[nH]c2cc(F)ccc12)C(C)C [Entry 64] | < 100 nM
21 | CN[C@@H](C)C(=O)N[C@H](C(=O)N1CCC[C@H]1Cc1c(-c2ccc(-c3c(C[C@@H]4CCCN4C(=O)[C@@H](NC(=O)[C@H](C)NC)C(C)C)c4ccc(F)cc4n3CCO)cc2)[nH]c2cc(F)ccc12)C(C)C [Entry 67] | < 100 nM
22 | CN[C@H](C)C(=O)N[C@H](C(=O)N1CCC[C@H]1Cc1c(-c2ccc(-c3c(C[C@@H]4CCCN4C(=O)[C@@H](NC(=O)[C@@H](C)NC)C(C)(C)C)c4ccc(F)cc4n3CCO)cc2)[nH]c2cc(F)ccc12)C(C)(C)C [Entry 71] | 100 to 1000 nM

Same assay, conditions: Example 4 series; read-out: KD Range

Row | SMILES | Kd
23 | CNC(C)C(=O)NC(C(=O)N1CCCC1Cc1c(-c2[nH]c3cc(F)ccc3c2CC2CCCN2C(=O)C(NC(=O)C(C)NC)C(C)O)[nH]c2cc(F)ccc12)C(C)O (stereo not drawn) [Entry 72] | < 100 nM
24 | CN[C@@H](C)C(=O)N[C@H](C(=O)N1CCC[C@H]1Cc1c(-c2[nH]c3cc(F)ccc3c2C[C@@H]2CCCN2C(=O)[C@@H](NC(=O)[C@H](C)NC)C(C)C)[nH]c2cc(F)ccc12)C(C)C [Entry 73] | < 100 nM
25 | CN[C@@H](C)C(=O)N[C@H](C(=O)N1CCC[C@H]1Cc1c(-c2[nH]c3cc(F)ccc3c2C[C@@H]2CCCN2C(=O)[C@@H](NC(=O)[C@H](C)N)C(C)C)[nH]c2cc(F)ccc12)C(C)C [Entry 74] | < 100 nM
26 | CN[C@@H](C)C(=O)N[C@H](C(=O)N1CCC[C@H]1Cc1c(-c2[nH]c3ccc(F)cc3c2C[C@@H]2CCCN2C(=O)[C@@H](NC(=O)[C@H](C)NC)C(C)C)[nH]c2ccc(F)cc12)C(C)C [Entry 75] | < 100 nM
27 | CN[C@@H](C)C(=O)NCC(=O)N1CCC[C@H]1Cc1c(-c2[nH]c3cc(F)ccc3c2C[C@@H]2CCCN2C(=O)CNC(=O)[C@H](C)NC)[nH]c2cc(F)ccc12 [Entry 76] | 100 to 1000 nM
28 | CN[C@@H](C)C(=O)N[C@@H](C)C(=O)N1CCC[C@H]1Cc1c(-c2[nH]c3cc(F)ccc3c2C[C@@H]2CCCN2C(=O)[C@H](C)NC(=O)[C@H](C)NC)[nH]c2cc(F)ccc12 [Entry 77] | 100 to 1000 nM
29 | CNC(C)C(=O)NC(C(=O)N1CCCC1Cc1c(-c2[nH]c3cc(F)ccc3c2CC2CCCN2C(=O)C(NC(=O)C(C)NC)C(C)O)[nH]c2cc(F)ccc12)C(C)O (stereo not drawn) [Entry 78] | < 100 nM
30 | CC[C@H](NC(=O)[C@H](C)NC)C(=O)N1CCC[C@H]1Cc1c(-c2[nH]c3cc(F)ccc3c2C[C@@H]2CCCN2C(=O)[C@H](CC)NC(=O)[C@H](C)NC)[nH]c2cc(F)ccc12 [Entry 79] | < 100 nM
31 | CNC(C)C(=O)NC(C(=O)N1CCCC1Cc1c(-c2[nH]c3ccc(F)cc3c2CC2CCCN2C(=O)C(NC(=O)C(C)NC)C(C)O)[nH]c2ccc(F)cc12)C(C)O (stereo not drawn) [Entry 80] | < 100 nM
32 | CC(C)[C@H](NC(=O)CN)C(=O)N1CCC[C@H]1Cc1c(-c2[nH]c3cc(F)ccc3c2C[C@@H]2CCCN2C(=O)[C@@H](NC(=O)CN)C(C)C)[nH]c2cc(F)ccc12 [Entry 81] | 100 to 1000 nM
33 | CCC(C)[C@H](NC(=O)[C@H](C)NC)C(=O)N1CCC[C@H]1Cc1c(-c2[nH]c3ccc(F)cc3c2C[C@@H]2CCCN2C(=O)[C@@H](NC(=O)[C@H](C)NC)C(C)CC)[nH]c2ccc(F)cc12 (stereo partly drawn) [Entry 82] | < 100 nM
34 | CN[C@@H](C)C(=O)N[C@H](C(=O)N1CCC[C@H]1Cc1c(-c2[nH]c3ccc(F)cc3c2C[C@@H]2CCCN2C(=O)[C@@H](NC(=O)[C@H](C)NC)C2CCCCC2)[nH]c2ccc(F)cc12)C1CCCCC1 [Entry 83] | < 100 nM
35 | CN[C@@H](C)C(=O)N[C@H](C(=O)N1CCC[C@H]1Cc1c(-c2[nH]c3cc(F)ccc3c2C[C@@H]2CCCN2C(=O)[C@@H](NC(=O)[C@H](C)NC)C(C)(C)C)[nH]c2cc(F)ccc12)C(C)(C)C [Entry 84] | < 100 nM
36 | CN[C@@H](C)C(=O)N[C@H](C(=O)N1CCC[C@H]1Cc1c(-c2[nH]c3cc(F)ccc3c2C[C@@H]2CCCN2C(=O)[C@@H](NC(=O)[C@H](C)NC)C2CCCCC2)[nH]c2cc(F)ccc12)C1CCCCC1 [Entry 85] | < 100 nM
37 | CNC(C)C(=O)NC(C(=O)N1CC(O)CC1Cc1c(-c2[nH]c3cc(F)ccc3c2CC2CC(O)CN2C(=O)C(NC(=O)C(C)NC)C(C)O)[nH]c2cc(F)ccc12)C(C)O (stereo not drawn) [Entry 86] | < 100 nM
38 | CN[C@@H](C)C(=O)N[C@H](C(=O)N1C[C@@H](O)C[C@H]1Cc1c(-c2[nH]c3cc(F)ccc3c2C[C@@H]2C[C@H](O)CN2C(=O)[C@@H](NC(=O)[C@H](C)NC)C(C)C)[nH]c2cc(F)ccc12)C(C)C [Entry 87] | < 100 nM
39 | CNC(C)C(=O)NC(C(=O)N1CC(O)CC1Cc1c(-c2[nH]c3cc(F)ccc3c2CC2CC(O)CN2C(=O)C(NC(=O)C(C)NC)C(C)OC)[nH]c2cc(F)ccc12)C(C)OC (stereo not drawn) [Entry 88] | < 100 nM
